Patent US9376376B2, “Substitute diphenylamine compounds use thereof as antitumor agents” (SINOCHEM CORPORATION, priority 2012, dated 2016)

Experiments:
[1] = system: leukemia HL-60 cells; assay: In vitro cell inhibition assay (MTT method), HL-60; assay type: cell-based, human; conditions: 48 h
Procedure: (§1) The human cancer cell lines used for this assay were lung cancer A549 and leukemia HL-60.
(§2) The A549 or HL-60 cells were picked up from cell incubator, after washed for twice using PBS, cells were digested by 0.25% trypsin, and then add medium to terminate the digestion. After cells were collected using centrifuge and re-suspended, count cells under inverted microscope and add medium to make a density was 5×10^4 cells/mL. After 100 μL aliquots were added to each well of 96-well microtiter plates, cells were cultured in 5% incubator for overnight at 37° C., then the different concentration compounds were added to each well. After incubation for 48 h, MTT solution was added to each well and plates were then incubated for 4 h. The MTT tetrazolium was reduced to formazan by living cells. Then the formazan crystals were dissolved though adding DMSO to each well. The absorbance was read at 570 nm with a microplate reader.

[2] = system: lung cancer A549 cell; assay: In vitro cell inhibition assay (MTT method), A549; assay type: cell-based, human; conditions: 48 h incubation
Procedure: as §1, §2

## N#Cc1c(Cl)c(Cl)c(Nc2ccccc2)c(C#N)c1Cl [Compound 6-1]
[1]; concentration 0.01 μM
  Proliferation inhibitory effect of the compounds on HL-60 cells (% of Control): 11.5 % of Control
[1]; concentration 0.1 μM
  Proliferation inhibitory effect of the compounds on HL-60 cells (% of Control): 10.4 % of Control
[1]; concentration 1 μM
  Proliferation inhibitory effect of the compounds on HL-60 cells (% of Control): 18.8 % of Control
[1]; concentration 10 μM
  Proliferation inhibitory effect of the compounds on HL-60 cells (% of Control): 63.9 % of Control
[1]; concentration 100 μM
  Proliferation inhibitory effect of the compounds on HL-60 cells (% of Control): 61.9 % of Control
[2]; 0.01 μM
  Proliferation inhibitory effect of the compounds on A549 cell (% of Control): 13.1 % of Control
[2]; 0.1 μM
  Proliferation inhibitory effect of the compounds on A549 cell (% of Control): 12.1 % of Control
[2]; 1 μM
  Proliferation inhibitory effect of the compounds on A549 cell (% of Control): 16.9 % of Control
[2]; 10 μM
  Proliferation inhibitory effect of the compounds on A549 cell (% of Control): 20.4 % of Control
[2]; 100 μM
  Proliferation inhibitory effect of the compounds on A549 cell (% of Control): 19.8 % of Control

## N#Cc1c(Cl)c(Cl)c(Nc2ccccc2Cl)c(C#N)c1Cl [Compound 6-3]
[1]; concentration 0.01 μM
  Proliferation inhibitory effect of the compounds on HL-60 cells (% of Control): −7.1 % of Control
[1]; concentration 0.1 μM
  Proliferation inhibitory effect of the compounds on HL-60 cells (% of Control): −6.3 % of Control
[1]; concentration 1 μM
  Proliferation inhibitory effect of the compounds on HL-60 cells (% of Control): −2.1 % of Control
[1]; concentration 10 μM
  Proliferation inhibitory effect of the compounds on HL-60 cells (% of Control): 72.2 % of Control
[1]; concentration 100 μM
  Proliferation inhibitory effect of the compounds on HL-60 cells (% of Control): 94.5 % of Control

## N#Cc1ccccc1Nc1c(Cl)c(Cl)c(C#N)c(Cl)c1C#N [Compound 6-10]
[1]; concentration 0.01 μM
  Proliferation inhibitory effect of the compounds on HL-60 cells (% of Control): 21.8 % of Control
[1]; concentration 0.1 μM
  Proliferation inhibitory effect of the compounds on HL-60 cells (% of Control): 16.1 % of Control
[1]; concentration 1 μM
  Proliferation inhibitory effect of the compounds on HL-60 cells (% of Control): 9.8 % of Control
[1]; concentration 10 μM
  Proliferation inhibitory effect of the compounds on HL-60 cells (% of Control): 78.5 % of Control
[1]; concentration 100 μM
  Proliferation inhibitory effect of the compounds on HL-60 cells (% of Control): 77.1 % of Control

## N#Cc1ccc(Nc2c(Cl)c(Cl)c(C#N)c(Cl)c2C#N)cc1 [Compound 6-23]
[1]; concentration 0.01 μM
  Proliferation inhibitory effect of the compounds on HL-60 cells (% of Control): 2.3 % of Control
[1]; concentration 0.1 μM
  Proliferation inhibitory effect of the compounds on HL-60 cells (% of Control): 10.8 % of Control
[1]; concentration 1 μM
  Proliferation inhibitory effect of the compounds on HL-60 cells (% of Control): 23.1 % of Control
[1]; concentration 10 μM
  Proliferation inhibitory effect of the compounds on HL-60 cells (% of Control): 93.2 % of Control
[1]; concentration 100 μM
  Proliferation inhibitory effect of the compounds on HL-60 cells (% of Control): 90.6 % of Control
[2]; 0.01 μM
  Proliferation inhibitory effect of the compounds on A549 cell (% of Control): −0.8 % of Control
[2]; 0.1 μM
  Proliferation inhibitory effect of the compounds on A549 cell (% of Control): −1.8 % of Control
[2]; 1 μM
  Proliferation inhibitory effect of the compounds on A549 cell (% of Control): 2.5 % of Control
[2]; 10 μM
  Proliferation inhibitory effect of the compounds on A549 cell (% of Control): 93.7 % of Control
[2]; 100 μM
  Proliferation inhibitory effect of the compounds on A549 cell (% of Control): 93.8 % of Control

## N#Cc1c(Cl)c(Cl)c(Nc2cc(C(F)(F)F)ccc2F)c(C#N)c1Cl [Compound 6-35]
[1]; concentration 0.01 μM
  Proliferation inhibitory effect of the compounds on HL-60 cells (% of Control): −8.3 % of Control
[1]; concentration 0.1 μM
  Proliferation inhibitory effect of the compounds on HL-60 cells (% of Control): −5.0 % of Control
[1]; concentration 1 μM
  Proliferation inhibitory effect of the compounds on HL-60 cells (% of Control): −1.8 % of Control
[1]; concentration 10 μM
  Proliferation inhibitory effect of the compounds on HL-60 cells (% of Control): 72.3 % of Control
[1]; concentration 100 μM
  Proliferation inhibitory effect of the compounds on HL-60 cells (% of Control): 89.9 % of Control
[2]; 0.01 μM
  Proliferation inhibitory effect of the compounds on A549 cell (% of Control): 0.5 % of Control
[2]; 0.1 μM
  Proliferation inhibitory effect of the compounds on A549 cell (% of Control): −0.8 % of Control
[2]; 1 μM
  Proliferation inhibitory effect of the compounds on A549 cell (% of Control): 1.0 % of Control
[2]; 10 μM
  Proliferation inhibitory effect of the compounds on A549 cell (% of Control): 58.6 % of Control
[2]; 100 μM
  Proliferation inhibitory effect of the compounds on A549 cell (% of Control): 92.7 % of Control

## N#Cc1c(Cl)c(Cl)c(Nc2ccc(Cl)cc2Cl)c(C#N)c1Cl [Compound 6-39]
[1]; concentration 0.01 μM
  Proliferation inhibitory effect of the compounds on HL-60 cells (% of Control): 11.9 % of Control
[1]; concentration 0.1 μM
  Proliferation inhibitory effect of the compounds on HL-60 cells (% of Control): 14.7 % of Control
[1]; concentration 1 μM
  Proliferation inhibitory effect of the compounds on HL-60 cells (% of Control): 31.0 % of Control
[1]; concentration 10 μM
  Proliferation inhibitory effect of the compounds on HL-60 cells (% of Control): 78.5 % of Control
[1]; concentration 100 μM
  Proliferation inhibitory effect of the compounds on HL-60 cells (% of Control): 80.8 % of Control
[2]; 0.01 μM
  Proliferation inhibitory effect of the compounds on A549 cell (% of Control): 18.3 % of Control
[2]; 0.1 μM
  Proliferation inhibitory effect of the compounds on A549 cell (% of Control): 18.8 % of Control
[2]; 1 μM
  Proliferation inhibitory effect of the compounds on A549 cell (% of Control): 19.6 % of Control
[2]; 10 μM
  Proliferation inhibitory effect of the compounds on A549 cell (% of Control): 24.9 % of Control
[2]; 100 μM
  Proliferation inhibitory effect of the compounds on A549 cell (% of Control): 92.6 % of Control

## N#Cc1c(Cl)c(Cl)c(Nc2c(Cl)cccc2Cl)c(C#N)c1Cl [Compound 6-41]
[1]; concentration 0.01 μM
  Proliferation inhibitory effect of the compounds on HL-60 cells (% of Control): 6.5 % of Control
[1]; concentration 0.1 μM
  Proliferation inhibitory effect of the compounds on HL-60 cells (% of Control): 3.9 % of Control
[1]; concentration 1 μM
  Proliferation inhibitory effect of the compounds on HL-60 cells (% of Control): 7.8 % of Control
[1]; concentration 10 μM
  Proliferation inhibitory effect of the compounds on HL-60 cells (% of Control): 86.5 % of Control
[1]; concentration 100 μM
  Proliferation inhibitory effect of the compounds on HL-60 cells (% of Control): 87.9 % of Control
[2]; 0.01 μM
  Proliferation inhibitory effect of the compounds on A549 cell (% of Control): 3.8 % of Control
[2]; 0.1 μM
  Proliferation inhibitory effect of the compounds on A549 cell (% of Control): 0.7 % of Control
[2]; 1 μM
  Proliferation inhibitory effect of the compounds on A549 cell (% of Control): 13.1 % of Control
[2]; 10 μM
  Proliferation inhibitory effect of the compounds on A549 cell (% of Control): 84.0 % of Control
[2]; 100 μM
  Proliferation inhibitory effect of the compounds on A549 cell (% of Control): 92.0 % of Control
